Our source for the IC50 values is patent US10258603B2 (priority 2014, dated 2019).

SMILES strings stand for the structures.

The target of the first assay is T1, CECR2 (Homo sapiens, UniProt Q9BXF3).
T1 construct: 424-538 was cloned, expressed, and purified to homogeneity; Flag; made in house
T1 sequence (Q9BXF3 424-538 limits assumed): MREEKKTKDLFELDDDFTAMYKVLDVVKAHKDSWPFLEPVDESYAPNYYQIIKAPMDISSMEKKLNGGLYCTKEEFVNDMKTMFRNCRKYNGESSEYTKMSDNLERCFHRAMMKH
Briefly: CECR2 TR-FRET Binding Assay. The following applies: IC50 (uM). The source says: IC50 Measurements for Inhibitors Using CECR2 TR-FRET Binding Assay
For `CC(C)N1CCC(N(C)C(=O)c2cn(C)c(=O)c3[nH]ccc23)CC1` [Example 41, N-(1-isopropyl-4-piperidyl)-N,6-dimethyl-7-oxo-1H-pyrrolo[2,3-c]pyridine-4-carboxamide], the IC50 was 0.77 µM.

The assay is the same for the next values; noted with them: read-out: IC50.
As for `CC(C)N1CC[C@@H](NC(=O)c2cn(C)c(=O)c3[nH]ccc23)[C@H](C)C1` (relative stereo) [Example 239], the IC50 was 2.3 µM.

With `C=CCn1cc(C(=O)N2CCN(c3ccc(F)cc3)CC2C(N)=O)c2cc(C)[nH]c2c1=O` (single isomer, unassigned) [Example 273, 1-(6-allyl-2-methyl-7-oxo-6,7-dihydro-1H-pyrrolo[2,3-c]pyridine-4-carbonyl)-4-(4-fluorophenyl)piperazine-2-carboxamide], the half-inhibitory concentration (IC50) was found to be 4.9 µM.

As for `C=CCn1cc(C(=O)N2CCN(c3ccc(F)cc3)CC2C(N)=O)c2cc(C)[nH]c2c1=O` (single isomer, unassigned) [Example 274, 1-(6-allyl-2-methyl-7-oxo-6,7-dihydro-1H-pyrrolo[2,3-c]pyridine-4-carbonyl)-4-(4-fluorophenyl)piperazine-2-carboxamide], the IC50 worked out at 0.074 µM.

As for `C=CCn1cc(C(=O)N(C)C2CCC(C)(C)c3ccccc32)c2cc(C)[nH]c2c1=O` (single isomer, unassigned) [Example 279], the IC50 was determined as 0.012 µM.

On to `C=CCn1cc(C(=O)N(C)C2CCC(C)(C)c3ccccc32)c2cc(C)[nH]c2c1=O` (single isomer, unassigned) [Example 280], for which the IC50 was found to be 0.049 µM.

On to `C=CCn1cc(C(=O)N(C)C2CCCc3cc(OC)ccc32)c2cc(C)[nH]c2c1=O` (single isomer, unassigned) [Example 281], for which the IC50 stood at 0.032 µM.

As for `C=CCn1cc(C(=O)N(C)C2CCCc3cc(OC)ccc32)c2cc(C)[nH]c2c1=O` (single isomer, unassigned) [Example 282], the half-maximal inhibitory concentration (IC50) is 0.067 µM.

With `C=CCn1cc(C(=O)N(C)C2CCCc3c(F)cccc32)c2cc(C)[nH]c2c1=O` (single isomer, unassigned) [Example 286], the IC50 stood at 0.041 µM.

Regarding `C=CCn1cc(C(=O)N(C)C2CCCc3ccc(C)cc32)c2cc(C)[nH]c2c1=O` (single isomer, unassigned) [Example 287], the IC50 worked out at 0.084 µM.

For `C=CCn1cc(C(=O)N(C)C2CCCc3c(OC)cccc32)c2cc(C)[nH]c2c1=O` (single isomer, unassigned) [Example 288], the IC50 amounted to 0.041 µM.

Regarding `C=CCn1cc(C(=O)N(C)C2CCCc3c(OC)cccc32)c2cc(C)[nH]c2c1=O` (single isomer, unassigned) [Example 289], the IC50 turned out to be 0.045 µM.

On to `C=CCn1cc(C(=O)N(C)C2CCCc3ccncc32)c2cc(C)[nH]c2c1=O` (single isomer, unassigned) [Example 290], for which the IC50 turned out to be 0.05 µM.

Consider `C=CCn1cc(C(=O)N(C)C2CCCc3ccncc32)c2cc(C)[nH]c2c1=O` (single isomer, unassigned) [Example 291], for which the IC50 came to 0.14 µM.

For the compound `CC(CN(C)C)NC(=O)c1cn(C)c(=O)c2[nH]ccc12` (stereo not drawn) [Example 2, N-[2-(dimethylamino)-1-methyl-ethyl]-6-methyl-7-oxo-1H-pyrrolo[2,3-c]pyridine-4-carboxamide], the half-inhibitory concentration (IC50) stood at 14 µM.

For `CN(C)C1CCC(NC(=O)c2cn(C)c(=O)c3[nH]ccc23)CC1` (stereo not drawn) [Example 21, N-[4-(dimethylamino)cyclohexyl]-6-methyl-7-oxo-1H-pyrrolo[2,3-c]pyridine-4-carboxamide], the half-inhibitory concentration (IC50) came to 0.89 µM.

Take `CC(C)N1CCC(CN(C)C(=O)c2cn(C)c(=O)c3[nH]ccc23)C1` (stereo not drawn) [Example 23, N-[(1-isopropylpyrrolidin-3-yl)methyl]-N,6-dimethyl-7-oxo-1H-pyrrolo[2,3-c]pyridine-4-carboxamide]: the IC50 stood at 2.1 µM.

Take `CC1CCN(CCNC(=O)c2cn(C)c(=O)c3[nH]ccc23)CC1` [Example 26, 6-methyl-N-[2-(4-methyl-1-piperidyl)ethyl]-7-oxo-1H-pyrrolo[2,3-c]pyridine-4-carboxamide]: the IC50 turned out to be 3.2 µM.

With `CC1CCCCN1CCCNC(=O)c1cn(C)c(=O)c2[nH]ccc12` (stereo not drawn) [Example 29, 6-methyl-N-[3-(2-methyl-1-piperidyl)propyl]-7-oxo-1H-pyrrolo[2,3-c]pyridine-4-carboxamide], the IC50 stood at 1.8 µM.

With `Cn1cc(C(=O)NCCN2CCC(O)CC2)c2cc[nH]c2c1=O` [Example 30, N-[2-(4-hydroxy-1-piperidyl)ethyl]-6-methyl-7-oxo-1H-pyrrolo[2,3-c]pyridine-4-carboxamide], the IC50 is 3.8 µM.

Regarding `Cn1cc(C(=O)NCCN2CCS(=O)(=O)CC2)c2cc[nH]c2c1=O` [Example 37, N-[2-(1,1-dioxo-1,4-thiazinan-4-yl)ethyl]-6-methyl-7-oxo-1H-pyrrolo[2,3-c]pyridine-4-carboxamide], the IC50 is 3.1 µM.

Regarding `Cn1cc(C(=O)N2CCC(N3CCCCC3)CC2)c2cc[nH]c2c1=O` [Example 59, 6-methyl-4-[4-(1-piperidyl)piperidine-1-carbonyl]-1H-pyrrolo[2,3-c]pyridin-7-one], the IC50 turned out to be 0.89 µM.

As to `CN(C)C1CCN(C(=O)c2cn(C)c(=O)c3[nH]ccc23)C1` (stereo not drawn) [Example 60, 4-[3-(dimethylamino)pyrrolidine-1-carbonyl]-6-methyl-1H-pyrrolo[2,3-c]pyridin-7-one], the IC50 is 10.3 µM.

Take `CN1CCN(C2CCN(C(=O)c3cn(C)c(=O)c4[nH]ccc34)CC2)CC1` [Example 61, 6-methyl-4-[4-(4-methylpiperazin-1-yl)piperidine-1-carbonyl]-1H-pyrrolo[2,3-c]pyridin-7-one]: the IC50 was found to be 1 µM.

Regarding `CC1CCN(C2CCN(C(=O)c3cn(C)c(=O)c4[nH]ccc34)CC2)CC1` [Example 62, 6-methyl-4-[4-(4-methyl-1-piperidyl)piperidine-1-carbonyl]-1H-pyrrolo[2,3-c]pyridin-7-one], the IC50 amounted to 1.5 µM.

Consider `CC1CCN(C(=O)c2cn(C)c(=O)c3[nH]ccc23)CC1` [Example 65, 6-methyl-4-(4-methylpiperidine-1-carbonyl)-1H-pyrrolo[2,3-c]pyridin-7-one], for which the IC50 came to 1.4 µM.

Turning to `COC1CCN(C(=O)c2cn(C)c(=O)c3[nH]ccc23)CC1` [Example 66, 4-(4-methoxypiperidine-1-carbonyl)-6-methyl-1H-pyrrolo[2,3-c]pyridin-7-one], the IC50 stood at 2.4 µM.

Take `CC1CCCN(C2CCN(C(=O)c3cn(C)c(=O)c4[nH]ccc34)CC2)C1` (stereo not drawn) [Example 67, 6-methyl-4-[4-(3-methyl-1-piperidyl)piperidine-1-carbonyl]-1H-pyrrolo[2,3-c]pyridin-7-one]: the IC50 came out at 1.8 µM.

As to `Cn1cc(C(=O)N2CCC(C(C)(C)O)CC2)c2cc[nH]c2c1=O` [Example 68, 4-[4-(1-hydroxy-1-methyl-ethyl)piperidine-1-carbonyl]-6-methyl-1H-pyrrolo[2,3-c]pyridin-7-one], the IC50 came out at 3 µM.

With `Cn1cc(C(=O)N2CCC(Cc3ccc(F)cc3)CC2)c2cc[nH]c2c1=O` [Example 69, 4-[4-[(4-fluorophenyl)methyl]piperidine-1-carbonyl]-6-methyl-1H-pyrrolo[2,3-c]pyridin-7-one], the IC50 turned out to be 0.45 µM.

Turning to `COCC1CCN(C(=O)c2cn(C)c(=O)c3[nH]ccc23)CC1` [Example 72, 4-[4-(methoxymethyl)piperidine-1-carbonyl]-6-methyl-1H-pyrrolo[2,3-c]pyridin-7-one], the IC50 came to 2.2 µM.

As for `Cn1cc(C(=O)N2CCC3(CC2)COC3)c2cc[nH]c2c1=O` [Example 73, 6-methyl-4-(2-oxa-7-azaspiro[3.5]nonane-7-carbonyl)-1H-pyrrolo[2,3-c]pyridin-7-one], the IC50 is 2.5 µM.

Take `CN(C)C(=O)C1CCN(C(=O)c2cn(C)c(=O)c3[nH]ccc23)CC1` [Example 74, N,N-dimethyl-1-(6-methyl-7-oxo-1H-pyrrolo[2,3-c]pyridine-4-carbonyl)piperidine-4-carboxamide]: the IC50 came out at 5.9 µM.

On to `Cn1cc(C(=O)N2CCC(CO)CC2)c2cc[nH]c2c1=O` [Example 75, 4-[4-(hydroxymethyl)piperidine-1-carbonyl]-6-methyl-1H-pyrrolo[2,3-c]pyridin-7-one], for which the IC50 stood at 4.8 µM.

Take `Cn1cc(C(=O)N2CCC(CCc3ccncc3)CC2)c2cc[nH]c2c1=O` [Example 76, 6-methyl-4-[4-[2-(4-pyridyl)ethyl]piperidine-1-carbonyl]-1H-pyrrolo[2,3-c]pyridin-7-one]: the IC50 came out at 0.35 µM.

Turning to `Cn1cc(C(=O)N2CCC(N3CCCC3)CC2)c2cc[nH]c2c1=O` [Example 77, 6-methyl-4-(4-pyrrolidin-1-ylpiperidine-1-carbonyl)-1H-pyrrolo[2,3-c]pyridin-7-one], the IC50 came to 2.7 µM.

For `CC1CN(C(=O)c2cn(C)c(=O)c3[nH]ccc23)CCC1N(C)C` (stereo not drawn) [Example 78, 4-[4-(dimethylamino)-3-methyl-piperidine-1-carbonyl]-6-methyl-1H-pyrrolo[2,3-c]pyridin-7-one], the IC50 came out at 9.9 µM.

On to `CCN(CC)C1CCN(C(=O)c2cn(C)c(=O)c3[nH]ccc23)CC1` [Example 79, 4-[4-(diethylamino)piperidine-1-carbonyl]-6-methyl-1H-pyrrolo[2,3-c]pyridin-7-one], for which the IC50 is 5.1 µM.

As to `Cc1cccc(NC(=O)c2cn(C)c(=O)c3[nH]ccc23)c1` [Example 80, 6-methyl-N-(m-tolyl)-7-oxo-1H-pyrrolo[2,3-c]pyridine-4-carboxamide], the IC50 was 0.51 µM.

On to `Cn1cc(C(=O)Nc2cccc(CN3CCOCC3)c2)c2cc[nH]c2c1=O` [Example 113], for which the IC50 worked out at 0.31 µM.

For the compound `CN(C(=O)c1cn(C)c(=O)c2[nH]ccc12)C1CCN(c2ccncn2)CC1` [Example 139, N,6-dimethyl-7-oxo-N-(1-pyrimidin-4-yl-4-piperidyl)-1H-pyrrolo[2,3-c]pyridine-4-carboxamide], the half-inhibitory concentration (IC50) was found to be 0.24 µM.

For `Cc1cnc(N2CCC(N(C)C(=O)c3cn(C)c(=O)c4[nH]ccc34)CC2)nc1` [Example 140, N,6-dimethyl-N-[1-(5-methylpyrimidin-2-yl)-4-piperidyl]-7-oxo-1H-pyrrolo[2,3-c]pyridine-4-carboxamide], the IC50 stood at 0.34 µM.
